pEC50, pIC50: −log10 of the molar value.
Tests used:
[1] = Inhibition of HCV genotype 3a NS5A infected in Huh7 cells assessed as reduction in viral replication incubated 3 days and measured by bright Glo-luciferase reporter gene assay
[2] = Inhibition of HCV genotype 1a NS5A infected in Huh7 cells assessed as reduction in viral replication incubated 3 days and measured by bright Glo-luciferase reporter gene assay
[3] = Inhibition of HCV genotype 5a NS5A infected in Huh7 cells assessed as reduction in viral replication incubated 3 days and measured by bright Glo-luciferase reporter gene assay
[4] = Inhibition of HCV genotype 2a NS5A infected in Huh7 cells assessed as reduction in viral replication incubated 3 days and measured by bright Glo-luciferase reporter gene assay
[5] = Inhibition of HCV genotype 4a NS5A infected in Huh7 cells assessed as reduction in viral replication incubated 3 days and measured by bright Glo-luciferase reporter gene assay
[6] = Inhibition of HCV genotype 1b NS5A infected in Huh7 cells assessed as reduction in viral replication incubated 3 days and measured by Bright-Glo luciferase assay

| SMILES | pIC50 [1] | pIC50 [2] | pIC50 [3] | pIC50 [4] | pIC50 [5] | pEC50 [6] |
| --- | --- | --- | --- | --- | --- | --- |
| COC(=O)N[C@H](C(=O)N1CCC[C@H]1c1ncc(C#CC#Cc2ccc(-c3cnc([C@@H]4CCCN4C(=O)[C@H](NC(=O)OC)c4ccccc4)[nH]3)cc2)[nH]1)C(C)C | 9.20 | 9.68 | 10.00 | 11.15 | 10.92 | 11.22 |
| COC(=O)N[C@H](C(=O)N1CCC[C@H]1c1ncc(C#CC#Cc2c(C)cc(-c3cnc([C@@H]4CCCN4C(=O)[C@@H](NC(=O)OC)C(C)C)[nH]3)cc2-c2ccccc2)[nH]1)C(C)C | 9.44 | 10.43 | 10.57 | 11.10 | 11.22 |  |
| COC(=O)N[C@H](C(=O)N1CCC[C@H]1c1ncc(C#CC#Cc2c(F)cc(-c3cnc([C@@H]4CCCN4C(=O)[C@@H](NC(=O)OC)C(C)C)[nH]3)cc2-c2ccccc2)[nH]1)C(C)C | 9.34 | 10.19 | 9.92 | 10.82 | 10.72 |  |
| COC(=O)N[C@H](C(=O)N1CCC[C@H]1c1ncc(-c2cc(F)c(C#CC#Cc3cnc([C@@H]4CCCN4C(=O)[C@H](NC(=O)OC)c4ccccc4)[nH]3)c(-c3ccccc3)c2)[nH]1)C(C)C | 10.70 | 10.29 | 10.59 | 11.30 | 10.92 |  |
| COC(=O)N[C@H](C(=O)N1CCC[C@H]1c1ncc(C#CC#Cc2ccc(-c3cnc([C@@H]4CCCN4C(=O)[C@@H](NC(=O)OC)C(C)C)[nH]3)cc2-c2ccc3ccccc3c2)[nH]1)C(C)C | 9.06 | 9.61 | 9.57 | 10.55 | 11.10 |  |
| COC(=O)N[C@H](C(=O)N1CCC[C@H]1c1ncc(-c2ccc(C#CC#Cc3cnc([C@@H]4CCCN4C(=O)[C@H](NC(=O)OC)c4ccccc4)[nH]3)c(-c3ccc(N4CCN(C)CC4)cc3)c2)[nH]1)C(C)C | 9.45 | 9.95 | 8.85 | 10.64 | 9.26 | 11.40 |
| COC(=O)N[C@H](C(=O)N1CCC[C@H]1c1ncc(-c2cc(C)c(C#CC#Cc3cnc([C@@H]4CCCN4C(=O)[C@H](NC(=O)OC)c4ccccc4)[nH]3)c(-c3ccccc3)c2)[nH]1)C(C)C | 10.59 | 9.91 |  | 11.52 | 11.00 |  |
| COC(=O)N[C@H](C(=O)N1CCC[C@H]1c1ncc(-c2ccc(C#CC#Cc3cnc([C@@H]4CCCN4C(=O)[C@H](NC(=O)OC)c4ccccc4)[nH]3)c(Sc3ccccc3)c2)[nH]1)C(C)C | 10.04 | 9.59 | 10.46 | 10.85 | 11.05 |  |
| COC(=O)N[C@H](C(=O)N1CCC[C@H]1c1ncc(-c2ccc(C#CC#Cc3cnc([C@@H]4CCCN4C(=O)[C@H](NC(=O)OC)c4ccccc4)[nH]3)c(-c3ccc(-c4ccccc4)cc3)c2)[nH]1)C(C)C | 10.19 | 9.38 | 9.88 |  | 11.22 |  |
| COC(=O)N[C@H](C(=O)N1CCC[C@H]1c1ncc(-c2ccc(C#CC#Cc3cnc([C@@H]4CCCN4C(=O)[C@H](NC(=O)OC)c4ccccc4)[nH]3)cc2)[nH]1)C(C)C | 9.48 | 9.56 | 9.90 | 10.80 | 10.44 | 11.15 |
| COC(=O)N[C@H](C(=O)N1CCC[C@H]1c1ncc(C#CC#Cc2ccc(-c3cnc([C@@H]4CCCN4C(=O)[C@@H](NC(=O)OC)C(C)C)[nH]3)cc2-c2ccc(C(C)(C)C)cc2)[nH]1)C(C)C | 8.89 | 9.19 | 9.45 | 8.77 | 10.96 |  |
| COC(=O)N[C@H](C(=O)N1CCC[C@H]1c1ncc(-c2ccc(C#CC#Cc3cnc([C@@H]4CCCN4C(=O)[C@H](NC(=O)OC)c4ccccc4)[nH]3)c(-c3cccc(-c4ccccc4)c3)c2)[nH]1)C(C)C | 9.91 | 9.20 | 9.91 | 10.48 | 10.96 |  |
| COC(=O)N[C@H](C(=O)N1CCC[C@H]1c1ncc(-c2ccc(C#CC#Cc3cnc([C@@H]4CCCN4C(=O)[C@H](NC(=O)OC)c4ccccc4)[nH]3)c(-c3cccc(C(C)(C)C)c3)c2)[nH]1)C(C)C | 10.03 | 8.97 | 9.97 | 9.98 | 11.15 |  |
| COC(=O)N[C@H](C(=O)N1CCC[C@H]1c1ncc(C#CC#Cc2ccc(-c3cnc([C@@H]4CCCN4C(=O)[C@@H](NC(=O)OC)C(C)C)[nH]3)cc2-c2cccc(-c3ccccc3)c2)[nH]1)C(C)C | 8.55 | 9.33 | 9.12 | 9.35 | 10.72 |  |
| COC(=O)N[C@H](C(=O)N1CCC[C@H]1c1ncc(-c2ccc(C#CC#Cc3cnc([C@@H]4CCCN4C(=O)[C@H](NC(=O)OC)c4ccccc4)[nH]3)c(-c3cccc(F)c3F)c2)[nH]1)C(C)C | 10.80 | 10.55 | 10.72 | 12.00 |  |  |
| COC(=O)N[C@H](C(=O)N1CCC[C@H]1c1ncc(-c2ccc(C#CC#Cc3cnc([C@@H]4CCCN4C(=O)[C@H](NC(=O)OC)c4ccccc4)[nH]3)c(N(C)c3ccccc3)c2)[nH]1)C(C)C | 10.46 | 10.14 | 10.57 | 10.96 | 10.96 |  |
| COC(=O)N[C@H](C(=O)N1CCC[C@H]1c1ncc(-c2ccc(C#CC#Cc3cnc([C@@H]4CCCN4C(=O)[C@H](NC(=O)OC)c4ccccc4)[nH]3)c(-c3ccc(C(C)(C)C)cc3)c2)[nH]1)C(C)C | 9.44 | 8.64 | 9.16 |  | 11.00 |  |
| COC(=O)N[C@H](C(=O)N1CCC[C@H]1c1ncc(-c2ccc(C#CC#Cc3cnc([C@@H]4CCCN4C(=O)[C@H](NC(=O)OC)c4ccccc4)[nH]3)c(N3CCN(C)CC3)c2)[nH]1)C(C)C | < 8.00 | 9.33 | 8.51 | 9.84 | < 8.00 | 10.47 |
| COC(=O)N[C@H](C(=O)N1CCC[C@H]1c1ncc(-c2ccc(C#CC#Cc3cnc([C@@H]4CCCN4C(=O)[C@H](NC(=O)OC)c4ccccc4)[nH]3)c(-c3ccc(N(C)C)cc3)c2)[nH]1)C(C)C | 10.42 | 9.86 | 10.28 | 10.89 | 10.96 |  |
| COC(=O)N[C@H](C(=O)N1CCC[C@H]1c1ncc(C#CC#Cc2ccc(-c3cnc([C@@H]4CCCN4C(=O)[C@@H](NC(=O)OC)C(C)C)[nH]3)cc2)[nH]1)c1ccccc1 | 7.97 | 9.12 | 8.19 | 9.37 | 9.37 | 10.92 |
| COC(=O)N[C@H](C(=O)N1CCC[C@H]1c1ncc(-c2ccc(C#CC#Cc3cnc([C@@H]4CCCN4C(=O)[C@H](NC(=O)OC)c4ccccc4)[nH]3)c(-c3ccccc3)c2)[nH]1)C(C)C | 10.47 | 10.35 | 10.59 |  |  | 11.54 |
| COC(=O)N[C@H](C(=O)N1CCC[C@H]1c1ncc(-c2ccc(C#CC#Cc3cnc([C@@H]4CCCN4C(=O)[C@H](NC(=O)OC)c4ccccc4)[nH]3)c(Oc3ccccc3)c2)[nH]1)C(C)C | 10.40 | 9.67 | 10.72 | 10.89 | 11.10 |  |
| COC(=O)N[C@H](C(=O)N1CCC[C@H]1c1ncc(-c2ccc(C#CC#Cc3cnc([C@@H]4CCCN4C(=O)[C@@H](NC(=O)OC)C(C)C)[nH]3)cc2)[nH]1)c1ccccc1 | 8.31 | 8.87 | 9.70 | 9.92 | 9.91 | 10.92 |
| COC(=O)N[C@H](C(=O)N1CCC[C@H]1c1ncc(C#CC#Cc2ccc(-c3cnc([C@@H]4CCCN4C(=O)[C@@H](NC(=O)OC)C(C)C)[nH]3)cc2-c2ccccc2)[nH]1)C(C)C | 8.88 | 10.14 | 9.89 | 10.52 | 11.15 | 11.70 |
